From patent publication US20250298040A1, “MEASUREMENT OF REACTIVE OXYGEN SPECIES TO ASSESS RED BLOOD CELL QUALITY” (UNIVERSITY OF MARYLAND, BALTIMORE, priority 2022, published 2025)

What was measured:
[1] = CMH oxidation by O2^·− from xanthine oxidase/hypoxanthine, cell-free EPR; conditions: 1 mM CMH
Procedure: (§1) Measurement of CMH oxidation by EPR spectroscopy. All samples for EPR measurement contained 1 mM CMH. Other reagents, when used, were at the following concentrations: xanthine oxidase (XO), 0.03 U/mL; superoxide dismutase (SOD), 5 μM; hypoxanthine (HX), 0.5 mM; hydrogen peroxide (H2O2), 1 mM. Cell-free measurements were made in phosphate-buffered saline (PBS) containing 1 mM diethylenetriaminepentaacetic acid (DTPA). For measurements on RBCs, each sample was made by mixing 2 μL of 50 mM CMH·HCl stock solution with 98 μL of RBC suspension (˜40% hematocrit) in Citrate Phosphate Dextrose Adenine (CPDA-1, Sigma-Aldrich, St. Louis, MO). Time zero (t=0) is the time at which CMH is mixed into the sample. The amplitude (h) of the center peak of the CM· nitroxide EPR spectrum was converted into concentration (C in μM) by using a calibration equation, which for this example was C=(h−0.03308)/0.06461, determined using a series of standard samples.
(§2) Hydroxylamine molecular probe oxidation by O2^·−. The enzyme xanthine oxidase (XO) oxidizes its substrate hypoxanthine and generates O2^·− in the process. […] The first and last EPR spectrum of a representative data set are plotted as the inset at the top left, showing growth of the EPR spectrum as reaction proceeds. Superoxide dismutase (SOD) destroys O2^·− in a rapid enzymatic process, thus preventing it from reacting with CMH. […]

[2] = CMH incubation with hydrogen peroxide, cell-free EPR
Procedure: as §1, §2

[3] = system: RBCs from FVB and B6 mice; experiment: CMH oxidation in refrigerator-stored murine RBCs (FVB vs B6), EPR; format: cell-based, mouse
Procedure: as §1
Murine blood collection and storage. Mouse blood collections were approved by the University of Maryland, Baltimore Institutional Animal Care and Use Committee (IACUC) (protocol #0520008). Processed RBCs from two different mouse strains (C57BL/6J or B6 for short, Jackson Laboratory, Barr Harbor, ME and FVB, Charles Rivers, Worcester, MA) were evaluated in this study. Whole blood (approximately 800-1000 μL per mouse) was collected by cardiac puncture using a 21 G×1 inch needle and 1 mL syringe containing Citrate Phosphate Dextrose solution (CPD) from n=15 B6 and n=15 FVB mice. Blood was pooled within the strains in 15 mL falcon tubes and centrifuged at 750×g for 5 minutes. The plasma and buffy coat were removed. Each aliquot was washed 3 times in 5 mL of phosphate-buffered saline containing 10 mM glucose (PBS-G) with gentle swirling for 3 minutes followed by centrifugation at 750×g for 5 minutes. After the final wash, PBS-G was removed and CPDA-1 (840 μL, 14% of the total volume) was added to RBCs (approximately 6 mL of packed RBCs). Hematocrits were approximately 70% across storage tubes. Finally, preparations were split into 12 equal volumes (500 μL) and stored in 1.7 mL Eppendorf tubes (n=3 per mouse strain per time point) in a refrigerator at 4-6° C. Measurements were made on day 1 (immediately after processing) and then on days 2, 4 and 8 after processing such that measurements were made from independent tubes and not a single pooled blood tube.
Data analysis and presentation. Least-squares curve fitting and statistical analysis were performed using OriginPro software (OriginLab Corp., Northampton, MA). […] Difference between the two strains on the same day was assessed by t-test; within-strain differences over multiple days of storage were assessed through ANOVA.

[4] = system: human RBCs; experiment: CMH oxidation in human RBCs stored under normoxic vs hypoxic conditions, EPR; format: cell-based; conditions: entire duration of storage, p<9.31×10^−4
Procedure: as §1
Distinguishing between normoxic and hypoxic storage conditions. Hydroxylamine molecular probe, e.g., CMH, measurements can be used to distinguish human RBCs stored under normoxic and hypoxic conditions, as shown in FIG. 3B. Duplicate samples of human RBCs were stored 1) under normoxic conditions (equilibrated with air), and 2) under hypoxic conditions (equilibrated with low-oxygen atmosphere) and tested periodically with CMH. […]

[5] = system: RBCs from healthy donors and donors with sickle-cell disease; experiment: CMH oxidation in RBCs from healthy donors vs donors with sickle-cell disease, EPR; format: cell-based, human; conditions: SCD n=19, Healthy n=6, p=1.26×10^−6
Procedure: as §1
Distinguishing between RBCs from healthy subjects and patients with sickle-cell disease. Hydroxylamine molecular probe, e.g., CMH, measurements can be used to differentiate between RBCs from healthy donors and donors with sickle-cell disease, as shown in FIG. 4. RBCs from screened healthy donors (Healthy, n=6) and donors that have sickle-cell disease (SCD, n=19) were tested with CMH. […] Error bars represent s.e.m.

[6] = system: RBCs; experiment: Complete blood count RBC parameters following CMH exposure; format: cell-based, human; conditions: CMH 0.1, 0.3, 1.0, 3.0 and 10 mM, 10 minutes, ambient temperature, vs vehicle ddH2O
Procedure: (§3) Donor blood. Blood was obtained from healthy volunteers under informed consent. All human subject research was approved by the University of Maryland, Baltimore Institutional Review Board under Protocol #-HP-00092436.
(§4) CMH Incubation. Whole blood was centrifuged at 900 g/2500 rpm for 10 minutes to separate RBC from plasma/buffy coat. Plasma and buffy coat were removed, and RBCs were washed five times with 0.5 ml volumes of isotonic phosphate buffered saline containing 5 mM glucose. After each wash, supernatant and residual buffy coat was removed. After the 5th wash the RBC pellet was mixed with the preservative solution, CPDA-1 in an 85:15 ratio (150 μL CPDA-1 for a total volume of 1 mL). This step was performed to approximate the preparation of packed RBCs for refrigerator storage. CMH was diluted with double deionized H2O (ddH2O) to make stock solutions ranging from 400-4 mM. 10 μL of stock CMH solution or ddH2O was added to 390 μL of RBC/CPDA-1 suspensions, mixed gently but thoroughly and incubated at ambient temperature for 10 minutes. The concentrations tested were as follows: 0.1, 0.3, 1.0, 3.0 and 10 mM. This step was performed to approximate the preparation time needed for assaying superoxide in donor RBCs at the point of collection or in a blood bank setting. After 10 minutes of incubation, complete blood count, shear stress deformability, oxygen equilibrium (oxygen saturation and desaturation) was measured as 3 technical replicates for all samples. Fixation of RBCs was performed for scanning electron microscopy.
Total Blood cell count. Total blood cell count was quantified using ABX Pentra 60 C+ Hematology analyzer (HORIBA Instruments Inc., Kyoto, Japan). Briefly, 60 μL of whole blood was used for the analyses.

[7] = system: RBCs; experiment: Scanning electron microscopy of RBCs exposed to CMH; format: cell-based, human; conditions: CMH 0.1, 0.3, 1.0, 3.0 and 10 mM, 10 minutes, ambient temperature, vs vehicle
Procedure: as §3
as §4, with “This step was performed to approximate the preparation time needed for assaying superoxide in donor RBCs at the point of collection or in a blood bank setting.” left out, “Fixation of RBCs was performed for scanning electron microscopy.” left out

[8] = system: RBCs; experiment: Shear stress ektacytometry of RBCs exposed to CMH; format: cell-based, human; conditions: CMH 0.1, 0.3, 1.0, 3.0 and 10 mM; shear stress 5.33 Pa and 30 Pa; vs vehicle, P>0.05
Procedure: as §3
as §4, with “10 μL of stock CMH solution or ddH2O was added to 390 μL of RBC/CPDA-1 suspensions, mixed gently but thoroughly and incubated at ambient temperature for 10 minutes. The concentrations tested were as follows: 0.1, 0.3, 1.0, 3.0 and 10 mM. This step was performed to approximate the preparation time needed for assaying superoxide in donor RBCs at the point of collection or in a blood bank setting.” left out, “Fixation of RBCs was performed for scanning electron microscopy.” left out
Measurements of RBC deformability. RBC deformability was measured by ektacytometry, using the laser-assisted optical rotational cell analyzer (LORCA MaxSis, Mechatronics, Netherlands) at 37° C. […] RBC deformability was measured by applying 9 different shear stresses ([…]). […]

[9] = system: RBCs; experiment: Oxygen equilibrium (P50) of RBCs exposed to CMH; format: cell-based, human; conditions: CMH up to 10 mM (10-fold the intended assay concentration)
Procedure: as §3
as §4, with “10 μL of stock CMH solution or ddH2O was added to 390 μL of RBC/CPDA-1 suspensions, mixed gently but thoroughly and incubated at ambient temperature for 10 minutes. The concentrations tested were as follows: 0.1, 0.3, 1.0, 3.0 and 10 mM. This step was performed to approximate the preparation time needed for assaying superoxide in donor RBCs at the point of collection or in a blood bank setting.” left out, “Fixation of RBCs was performed for scanning electron microscopy.” left out
Measurement of Oxygen equilibrium (p50). […] The P50 value was determined using an automated blood oxygen analyzer (Hemox, Model B, TCS Scientific) following the manufacturer's protocol. […]

[10] = system: RBC; conditions: cited from earlier work

Row | RBC membrane/morphology changes by SEM [7] | RBC elongation index [8] | Structure (SMILES) | reaction of CMH with O2^·− (CM· formation quantified by EPR) ([1]; XO 0.03 U/mL, hypoxanthine 0.5 mM, PBS with 1 mM DTPA) | production of CM· in presence of SOD ([1]; XO + hypoxanthine + SOD 5 μM) | generation of CM· on incubation with H2O2 ([2]; 1 mM CMH, 1 mM H2O2, PBS with 1 mM DTPA) | selectivity of CMH for O2^·− over H2O2 ([2]; 1 mM H2O2) | rate of CM· generation in B6 RBCs ([3]; B6 mouse RBCs, day 2 of storage, 1 mM CMH, slightly above buffer control CPDA-1) | rate of CM· generation in FVB RBCs ([3]; FVB mouse RBCs vs B6, day 2 of storage, 1 mM CMH) | mean rate of CMH to CM· oxidation, FVB versus B6 murine RBCs ([3]; days 1, 2, 4 and 8 of storage) | rate of CMH oxidation, normoxic vs hypoxic stored RBCs [4] | rate of CMH oxidation, SCD RBCs vs Healthy RBCs [5] | % hematocrit [6] | Mean corpuscular hemoglobin [6] | Mean corpuscular volume [6] | RBC count [6] | mean corpuscular hemoglobin concentration [6] | total hemoglobin [6] | oxygen equilibrium curves / P50 (hemoglobin allostery) [9] | membrane permeance [10] | mean [CM·] higher in RBCs from FVB mice than B6 ([3]; at the time of CMH addition, each day of measurement)
1 | no remarkable changes | do not change the elongation indices | COC(=O)C1CC(C)(C)N(O)C1(C)C (stereo not drawn) [CMH, 1-hydroxy-3-methoxycarbonyl-2,2,5,5-tetramethylpyrrolidine] | converts it to CM· | negligible production of CM· | negligible generation of CM· | high selectivity | low rate | much higher rate | 3 fold | much higher rate | much higher rates | no CMH concentration dependent differences | no CMH concentration dependent differences | no CMH concentration dependent differences | no CMH concentration dependent differences | no CMH concentration dependent differences | no CMH concentration dependent differences | does not impart aberrant hemoglobin allostery | membrane-permeant | –
2 | – | – | COC(=O)C1CC(C)(C)N([O])C1(C)C (stereo not drawn) [CM·] | – | – | – | – | – | – | – | – | – | – | – | – | – | – | – | – | membrane-permeant | ~9 µM
